Experimental data published in patent US11851449B2, “Heterocyclic amide compounds having an RORvt inhibitory action” (TAKEDA PHARMACEUTICAL COMPANY LIMITED, priority 2013, dated 2023).
Where two headings read alike, the source gives them in different places.

How the values were obtained:
RORγt [1] = biological target: T1, RORγt (Homo sapiens, UniProt P51449); assay: Cofactor recruitment test (Alpha Screen, biotinylated SRC-1 peptide); type: biochemical; conditions: read-out: signal value inhibitory rate (%) at test compound 1 μM
T1 sequence (P51449 1-497 isoform P51449-2): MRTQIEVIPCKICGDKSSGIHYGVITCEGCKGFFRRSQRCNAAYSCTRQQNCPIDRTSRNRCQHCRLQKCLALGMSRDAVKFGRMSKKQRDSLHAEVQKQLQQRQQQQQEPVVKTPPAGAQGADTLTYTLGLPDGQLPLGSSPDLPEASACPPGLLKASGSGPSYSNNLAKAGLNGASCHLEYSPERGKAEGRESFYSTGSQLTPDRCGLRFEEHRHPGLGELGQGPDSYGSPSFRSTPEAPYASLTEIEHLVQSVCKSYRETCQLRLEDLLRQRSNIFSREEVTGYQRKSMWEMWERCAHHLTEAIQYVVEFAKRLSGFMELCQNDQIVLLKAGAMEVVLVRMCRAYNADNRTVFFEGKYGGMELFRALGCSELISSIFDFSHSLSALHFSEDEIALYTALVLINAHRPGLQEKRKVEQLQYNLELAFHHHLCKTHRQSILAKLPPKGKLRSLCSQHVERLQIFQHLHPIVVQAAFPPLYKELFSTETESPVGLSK
Procedure: Cofactor Recruitment Test
Cofactor recruitment test was performed by Alpha Screen (Histidine Detection Kit, PerkinElmer) method. First, a test compound was diluted with an assay buffer (50 mM Tris-HCl (pH 7.5), 50 mM KCl, 1 mM DTT, 0.1% BSA) and added to a 384 well plate by 5 μL. […] The mixture was stood in a dark place for 1 hr, and the signal value was measured by Envision (PerkinElmer).

RORγt [2] = biological target: T1, RORγt; assay: RORγt binding test (TR-FRET, fluorescent-labeled cholesterol); conditions: read-out: binding inhibitory rate (%) of fluorescent-labeled cholesterol to RORγt at test compound 1 μM
In short: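 His-tagged RORγt and BODIPY-cholesterol were incubated with compound for 20 min at room temperature in Tris-HCl pH 7.5, 100 mM NaCl, 1 mM DTT and 0.1% BSA. Terbium anti-His antibody was then added for a further 20 min.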

RORγt [3] = biological target: T1, RORγt; assay: Jurkat reporter test (human IL-17 ROR response element luciferase reporter); type: cell-based; conditions: read-out: luminescence level inhibitory rate (%) at test compound 3 μM
In short: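 Jurkat cells were electroporated (1350 V, 10 ms, 3 pulses) with reporter constructs, then cultured overnight with compound in RPMI containing 10% lipid-reduced FCS, 10 mM HEPES pH 7.5 and 5 μM lovastatin. Luciferase was quantified by Bright-Glo luminescence after 10 min at room temperature.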

[4] = test compound 3 μM, Jurkat cells

inhibition at 3 µM (RORγt [3]; [4]) [%]	Structure (SMILES)	inhibition at 1 µM (RORγt [1]) [%]	inhibition at 1 µM (RORγt [2]) [%]	inhibition at 3 µM (RORγt [3]; Jurkat) [%]
	COCc1ccc([C@@H](NC(=O)N2CC[C@@H](F)C2)C(=O)Nc2ccc([Si](C)(C)C)c(F)c2)cc1 [Example 95, (3R)-3-fluoro-N-((1R)-2-((3-fluoro-4-(trimethylsilyl)phenyl)amino)-1-(4-(methoxymethyl)phenyl)-2-oxoethyl)pyrrolidine-1-carboxamide]	93.8	99.3	99.8
	C[Si](C)(C)c1c(F)cc(NC(=O)C(NC(=O)Cn2cnccc2=O)C2CCOCC2)cc1F (stereo not drawn) [Example 1, N-(3,5-difluoro-4-(trimethylsilyl)phenyl)-2-(((6-oxopyrimidin-1(6H)-yl)acetyl)amino)-2-(tetrahydro-2H-pyran-4-yl)acetamide]	72.7	100	97.3
	COCc1ccc([C@@H](NC(=O)Cc2cc(O)no2)C(=O)Nc2ccc([Si](C)(C)C)c(F)c2)cc1 [Example 75, (2R)—N-(3-fluoro-4-(trimethylsilyl)phenyl)-2-(((3-hydroxy-1,2-oxazol-5-yl)acetyl)amino)-2-(4-(methoxymethyl)phenyl)acetamide]	95.8	102	99.7
97.6	CC(C)(C)c1ccc(NC(=O)[C@H](NC(=O)CC(F)(F)F)C2CCOCC2)cc1Cl [Example 9, N-((1R)-2-((4-tert-butyl-3-chlorophenyl)amino)-2-oxo-1-(tetrahydro-2H-pyran-4-yl)ethyl)-3,3,3-trifluoropropanamide]	29.7	100	
	COCc1ccc([C@@H](NC(=O)N2CC[C@H](O)C2)C(=O)Nc2ccc([Si](C)(C)C)c(F)c2)cc1 [Example 65, (3S)—N-((1R)-2-((3-fluoro-4-(trimethylsilyl)phenyl)amino)-1-(4-(methoxymethyl)phenyl)-2-oxoethyl)-3-hydroxypyrrolidine-1-carboxamide]	94.3	102	98.5
98.5	COCc1ccc([C@@H](NC(=O)CC2CC(=O)NC(=O)C2)C(=O)Nc2ccc(C(C)(C)C)c(F)c2)cc1 [Example 117, (2R)—N-(4-tert-butyl-3-fluorophenyl)-2-(((2,6-dioxopiperidin-4-yl)acetyl)amino)-2-(4-(methoxymethyl)phenyl)acetamide]	78.4	103	
	COCc1ccc([C@@H](NC(=O)CCC#N)C(=O)Nc2cc(F)c([Si](C)(C)C)c(F)c2)cc1 [Example 73, 3-cyano-N-((1R)-2-((3,5-difluoro-4-(trimethylsilyl)phenyl)amino)-1-(4-(methoxymethyl)phenyl)-2-oxoethyl)propanamide]	96.7	103	97.9
	COCc1ccc(C(C(=O)Nc2cc(F)c([Si](C)(C)C)c(F)c2)N(C)C(=O)c2cc(O)no2)cc1 (stereo not drawn) [Example 38, N-(2-((3,5-difluoro-4-(trimethylsilyl)phenyl)amino)-1-(4-(methoxymethyl)phenyl)-2-oxoethyl)-3-hydroxy-N-methyl-1,2-oxazole-5-carboxamide]	99.7	102	100
	COCc1ccc([C@@H](NC(=O)[C@H]2CNC(=O)C2)C(=O)Nc2ccc([Si](C)(C)C)c(F)c2)cc1 [Example 54, (3R)—N-((1R)-2-((3-fluoro-4-(trimethylsilyl)phenyl)amino)-1-(4-(methoxymethyl)phenyl)-2-oxoethyl)-5-oxopyrrolidine-3-carboxamide]	95.6	102	99
	COc1ccc(C(NC(=O)Cn2ncc3ccccc32)C(=O)Nc2cc(F)c([Si](C)(C)C)cc2F)cc1 (stereo not drawn) [Example 46, N-(2,5-difluoro-4-(trimethylsilyl)phenyl)-2-((1H-indazol-1-ylacetyl)amino)-2-(4-methoxyphenyl)acetamide]	87.2	99.5	101
